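GI50 is the concentration that inhibits growth by half. TGI denotes the concentration required for complete inhibition of growth.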
What was measured:
Assay in all cases: NCI-60 cell line screen, 384-well format; in the data active = GI50 below about 0.43 µM; inactive = the rest
OVCAR-4 ovarian = system: OVCAR-4 ovarian
HOP-62 NSCLC = system: HOP-62 NSCLC
NCI-H522 lung = system: NCI-H522 lung
786-0 renal = system: 786-0 renal
RPMI-8226 leukemia = system: RPMI-8226 leukemia
MALME-3M melanoma = system: MALME-3M melanoma
SK-OV-3 ovarian = system: SK-OV-3 ovarian
HT29 colon = system: HT29 colon
SR leukemia = system: SR leukemia
NCI/ADR-RES ovarian = system: NCI/ADR-RES ovarian
MOLT-4 leukemia = system: MOLT-4 leukemia
HOP-92 NSCLC = system: HOP-92 NSCLC
UO-31 renal = system: UO-31 renal
MDA-MB-435 melanoma = system: MDA-MB-435 melanoma
RXF 393 renal = system: RXF 393 renal
TK-10 renal = system: TK-10 renal
DU-145 prostate = system: DU-145 prostate
SF-539 CNS = system: SF-539 CNS
HL-60(TB) leukemia = system: HL-60(TB) leukemia
SW-620 colon = system: SW-620 colon
SF-268 CNS = system: SF-268 CNS
LOX IMVI melanoma = system: LOX IMVI melanoma
UACC-257 melanoma = system: UACC-257 melanoma
UACC-62 melanoma = system: UACC-62 melanoma
OVCAR-3 ovarian = system: OVCAR-3 ovarian
OVCAR-5 ovarian = system: OVCAR-5 ovarian
CCRF-CEM leukemia = system: CCRF-CEM leukemia
HCC-2998 colon = system: HCC-2998 colon
SK-MEL-5 melanoma = system: SK-MEL-5 melanoma

C[C@@H]1OCC2(CCN(c3cnc(Sc4ccnc(N)c4Cl)c(N)n3)CC2)[C@@H]1N
inactive: GI50 (OVCAR-4 ovarian) > 100 µM | GI50 (HOP-62 NSCLC) > 100 µM | GI50 (NCI-H522 lung) 1.44 µM | GI50 (786-0 renal) > 100 µM | GI50 (RPMI-8226 leukemia) 21 µM | GI50 (MALME-3M melanoma) > 100 µM | GI50 (SK-OV-3 ovarian) 25.2 µM | GI50 (HT29 colon) > 100 µM | GI50 (SR leukemia) 0.519 µM | GI50 (NCI/ADR-RES ovarian) 17.7 µM | GI50 (MOLT-4 leukemia) 35.9 µM | GI50 (UO-31 renal) 27.6 µM | GI50 (MDA-MB-435 melanoma) > 100 µM | GI50 (RXF 393 renal) > 100 µM | GI50 (TK-10 renal) 3.58 µM | GI50 (DU-145 prostate) > 100 µM | GI50 (SF-539 CNS) 34.7 µM | GI50 (HL-60(TB) leukemia) 65.1 µM | GI50 (SW-620 colon) > 100 µM | GI50 (SF-268 CNS) > 100 µM | GI50 (LOX IMVI melanoma) > 100 µM | GI50 (UACC-257 melanoma) > 100 µM | GI50 (UACC-62 melanoma) > 100 µM | GI50 (OVCAR-3 ovarian) 77.9 µM | GI50 (OVCAR-5 ovarian) > 100 µM | GI50 (CCRF-CEM leukemia) 32 µM | GI50 (HCC-2998 colon) > 100 µM | GI50 (SK-MEL-5 melanoma) > 100 µM
> 100 µM: TGI (OVCAR-4 ovarian) | TGI (HOP-62 NSCLC) | TGI (NCI-H522 lung) | TGI (786-0 renal) | TGI (RPMI-8226 leukemia) | TGI (MALME-3M melanoma) | TGI (SK-OV-3 ovarian) | TGI (HT29 colon) | TGI (NCI/ADR-RES ovarian) | TGI (MOLT-4 leukemia) | TGI (UO-31 renal) | TGI (MDA-MB-435 melanoma) | TGI (RXF 393 renal) | TGI (TK-10 renal) | TGI (DU-145 prostate) | TGI (SF-539 CNS) | TGI (HL-60(TB) leukemia) | TGI (SW-620 colon) | TGI (SF-268 CNS) | TGI (LOX IMVI melanoma) | TGI (UACC-257 melanoma) | TGI (UACC-62 melanoma) | TGI (OVCAR-3 ovarian) | TGI (OVCAR-5 ovarian) | TGI (CCRF-CEM leukemia) | TGI (HCC-2998 colon)
13.4 µM: TGI (SR leukemia)
active: GI50 (HOP-92 NSCLC) 0.0569 µM
1.05 µM: TGI (HOP-92 NSCLC)
